Where a name gives a salt, the structure may show the parent alone.
Assays:
ABL1 = target: T1, ABL1 (Homo sapiens, UniProt P00519); assay: Luminescence-based ABL kinase assay (300 μM ATP), ADP-Glo; format: biochemical
T1 construct: purchased Carna Biosciences
Excerpt: Compounds were serially diluted in DMSO. […] Luminescence signal positively correlates with kinase activity.

K562 cells = assay: K562 cell proliferation assay (CellTiter-Glo); format: cell-based; conditions: Homo sapiens, K562 cell viability, 72 hours, read-out: Cell Line (IC50, nM) K562
Experimental: (§1) K562 and HL60 Cell Proliferation Assay
(§2) K562 and HL60 cells, cultured in Iscove's Modified Dulbecco's Media (IMDM) supplemented with 10% FBS, were harvested at 50-80% confluency and plated at 2,000 cells per well (K562) or 1,500 cells per well (HL60) in 384-well tissue culture plates. A subset of wells contained media only (low control, LC). […] The plates were placed in a 37° C. incubator with 5% CO2 for 72 hours. Cell viability was measured using a CellTiter-Glo luminescent cell viability assay (Promega), which allows for relative quantification of metabolically active cells by luminescence-based measurements of intracellular ATP concentrations. Briefly, plates were removed from the incubator and equilibrated for 15 minutes at room temperature prior to the addition of 40 μL of CellTiter-Glo reagent. Plates were then incubated for 30 minutes at room temperature. Luminescence was measured using an EnSpire plate reader (Perkin Elmer). As noted above, luminescence values from wells with DMSO only or media without cells were used as high and low controls (HC and LC), respectively. Normalized percent viability was calculated as follows: percent viability=100×(Lumsample−LumLC)/(LumHC−LumLC).

ABL1 (T315I) = ABL1 (T315I) (Homo sapiens, UniProt P00519, T315I); assay: Luminescence-based ABL kinase assay (300 μM ATP), ADP-Glo; format: biochemical
Experimental: Kinase activity of ABL1 was measured using the ADP-Glo system (Promega), which measures formation of ADP using a luminescence-based method. Compounds were serially diluted in DMSO. 20 nL of compound or DMSO only (high control, HC) were added to a 384-well plate (OptiPlate-384. PerkinElmer) using an Echo550 liquid handler (Labcyte). 15 μL of kinase solution (10 mM MgCl2, 0.01% Brij-35, 2 mM DTT, 0.05% BSA, 1 mM EGTA, 50 mM HEPES pH 7.5, and 3.325 nM ABL1 [Carna Biosciences]) were added to each well of the 384-well plate containing the compounds. No enzyme control wells were included (low control, LC). The plate was incubated at room temperature for 30 minutes. 5 μL of a second solution containing 10 mM MgCl2, 0.01% Brij-35, 2 mM DTT, 0.05% BSA, 1 mM EGTA, 50 mM HEPES pH 7.5, 6 μM Peptide 2 (Perkin Elmer, Cat No 760346), and 1.2 mM ATP were added to each well to start the kinase reaction. The plate was incubated for 90 minutes at room temperature. 20 μL of ADP-Glo reagent (Promega) were then added to each well and the plate was incubated for 40 minutes at room temperature. 40 μL of kinase detection reagent (Promega) was added to each well and the plate was incubated for an additional 45 minutes at room temperature. During this step, ADP was converted to ATP, a substrate for luciferase, to produce luminescence signal. Luminescence was measured on an Envision plate reader (Perkin Elmer). Luminescence signal positively correlates with kinase activity. The percent kinase activity was calculated as follows: percent kinase activity=100×(Lumsample−LumLC)/(LumHC−LumLC). As noted above, DMSO only and no enzyme wells were used as high and low controls, respectively. IC50 values were calculated using the XLFit software.

HL60 cells = assay: HL60 cell proliferation assay (CellTiter-Glo); format: cell-based; conditions: Homo sapiens, HL-60, HL60 cell viability, 72 hours, read-out: Cell Line (IC50, nM) HL60
Experimental: as §1, §2

COc1ncc(F)cc1-c1c(C)c2cc(NC(=O)[C@@H]3C[C@@H]3F)ncc2n1C [Compound 60, (1S,2S)-2-fluoro-N-[2-(5-fluoro-2-methoxypyridin-3-yl)-1,3-dimethylpyrrolo[2,3-c]pyridin-5-yl]cyclopropane-1-carboxamide]
IC50 (ABL1): 191 nM | IC50 (K562 cells): 718 nM | IC50 (ABL1 (T315I)): 193 nM | IC50 (HL60 cells): 6490 nM

CCN1CCN(CCNC(=O)Nc2cc3cc(-c4c(OC)ccnc4OC)n(C)c3cn2)CC1 [Compound 83, 3-[2-(2,4-dimethoxypyridin-3-yl)-1-methylpyrrolo[2,3-c]pyridin-5-yl]-1-[2-(4-ethylpiperazin-1-yl)ethyl]urea formic acid]
IC50 (ABL1): 106 nM | IC50 (K562 cells): 160 nM | IC50 (ABL1 (T315I)): 230 nM | IC50 (HL60 cells): > 10000 nM

COc1cc2scnc2cc1-c1cc2cc(NC(=O)[C@@H]3C[C@@H]3F)ncc2n1C [Compound 70, (1S,2S)-2-fluoro-N-[2-(6-methoxy-1,3-benzothiazol-5-yl)-1-methylpyrrolo[2,3-c]pyridin-5-yl]cyclopropane-1-carboxamide]
IC50 (ABL1): 87.4 nM | IC50 (K562 cells): 193 nM | IC50 (ABL1 (T315I)): 316 nM | IC50 (HL60 cells): 1030 nM

COc1cccc(C)c1-c1cc2cc(NC(=O)C3CC3)ncc2n1C [Compound 11, N-[2-(2-methoxy-6-methylphenyl)-1-methylpyrrolo[2,3-c]pyridin-5-yl]cyclopropanecarboxamide]
IC50 (ABL1): 13.8 nM | IC50 (K562 cells): 0.421 nM | IC50 (ABL1 (T315I)): 38.6 nM | IC50 (HL60 cells): 182 nM

CCOc1nccc(C)c1-c1cc2cc(NC(=O)[C@@H]3C[C@@H]3F)ncc2n1C [Compound 114, (1S,2S)-N-[2-(2-ethoxy-4-methylpyridin-3-yl)-1-methylpyrrolo[2,3-c]pyridin-5-yl]-2-fluorocyclopropane-1-carboxamide]
IC50 (ABL1): 77 nM | IC50 (K562 cells): 257 nM | IC50 (ABL1 (T315I)): 546 nM | IC50 (HL60 cells): > 10000 nM

COc1ncnc(OC)c1-c1cc2cc(NC(=O)[C@@H]3C[C@H]3CN3CCN(C)CC3)ncc2n1C (single isomer, unassigned) [Compound 125]
IC50 (ABL1): 48.3 nM | IC50 (K562 cells): 113 nM | IC50 (ABL1 (T315I)): 107 nM | IC50 (HL60 cells): > 10000 nM

COc1ccccc1-c1cc2cc(NC(=O)[C@H]3C[C@H]3CO)ncc2n1C (relative stereo) [Compound 23, cis-2-(hydroxymethyl)-N-(2-(2-methoxyphenyl)-1-methyl-1H-pyrrolo[2,3-c]pyridin-5-yl)cyclopropane-1-carboxamide]
IC50 (ABL1): 119 nM | IC50 (K562 cells): 631 nM | IC50 (ABL1 (T315I)): 79.5 nM | IC50 (HL60 cells): 1690 nM

COc1c(-c2cc3cc(NC(=O)[C@@H]4C[C@@H]4F)ncc3n2C)ccc2cn[nH]c12 [Compound 30, (1S,2S)-2-fluoro-N-(2-(7-methoxy-1H-indazol-6-yl)-1-methyl-1H-pyrrolo[2,3-c]pyridin-5-yl)cyclopropane-1-carboxamide]
IC50 (ABL1): 119 nM | IC50 (K562 cells): 245 nM | IC50 (ABL1 (T315I)): 139 nM | IC50 (HL60 cells): 320 nM

Cn1c(-c2cccnc2OC2CC2)cc2cc(NC(=O)[C@@H]3C[C@@H]3F)ncc21 [Compound 115, (1S,2S)-N-[2-(2-cyclopropoxypyridin-3-yl)-1-methylpyrrolo[2,3-c]pyridin-5-yl]-2-fluorocyclopropane-1-carboxamide]
IC50 (ABL1): 18.5 nM | IC50 (K562 cells): 80.8 nM | IC50 (ABL1 (T315I)): 469 nM | IC50 (HL60 cells): 1550 nM

CNc1nc(OC)c(-c2cc3cc(NC(=O)[C@@H]4C[C@@H]4F)ncc3n2C)c(OC)n1 [Compound 105, (1S,2S)-N-(2-(4,6-dimethoxy-2-(methylamino)pyrimidin-5-yl)-1-methyl-1H-pyrrolo[2,3-c]pyridin-5-yl)-2-fluorocyclopropane-1-carboxamide]
IC50 (ABL1): 71.4 nM | IC50 (K562 cells): 60.9 nM | IC50 (ABL1 (T315I)): 79 nM | IC50 (HL60 cells): 199 nM

COc1cc2[nH]cnc2cc1-c1cc2cc(NC(=O)[C@@H]3C[C@@H]3F)ncc2n1C [Compound 28, (1S,2S)-2-fluoro-N-(2-(6-methoxy-1H-benzo[d]imidazol-5-yl)-1-methyl-1H-pyrrolo[2,3-c]pyridin-5-yl)cyclopropanecarboxamide formate]
IC50 (ABL1): 9.95 nM | IC50 (K562 cells): 30.4 nM | IC50 (ABL1 (T315I)): 19.8 nM | IC50 (HL60 cells): 233 nM
